Where two headings read alike, the source gives them in different places.
Key:
physchem = details: 5 mM glutathione
[1] = Plasma and tumor concentrations of AMG 510 (LC-MS/MS); type: in vivo, mouse; details: tumor-bearing mice; single oral dose 10 mg/kg
Protocol: Tumor tissue homogenates were prepared by adding water to tissue (4:1 mL:g) using tungsten carbide beads in a TissueLyzer (Qiagen). To 20 μL of sample (plasma or tumor tissue homogenate), 100 μL acetonitrile containing IS (200 ng/mL tolbutamide) was added, the sample was vortexed for 10 min, centrifuged at 3500 g for 10 min, and 90 μL of supernatant was collected. To the collected supernatant 100 μL of water (containing 0.1% formic acid) was added, and 5 μL of the resulting solution was injected onto the LC-MS/MS system. Chromatographic separations were achieved using a Phenomenex Kinetex C18 50×2.1 mm, 2.7 μm, maintained at 50° C., using 0.1% formic acid in H2O (mobile phase A) and 0.1% formic acid in acetonitrile (mobile phase B). […] Peak areas were integrated using Analyst® (Sciex).

[2] = system: ERK1/2 phosphorylation in UM-UC-3 cells; experiment: Basal ERK1/2 phosphorylation assay (MSD); type: cell-based; details: Homo sapiens, UMUC3; UM-UC-3, bladder, KRAS p.G12C homozygous; 2-hour treatment
Protocol: (§1) For cellular assays, 2.5E+04 cells were seeded per well in 96-well plates and incubated at 37° C., 5% CO2, o/n. The following day, 3-fold serially-diluted compound or DMSO was added to the cells, and the plates were incubated at 37° C., 5% CO2 for 2 hours. […] Signal intensity corresponded with phospho-ERK1/2 levels and was normalized DMSO control.

[3] = system: ERK1/2 phosphorylation in COLO-205 cells; experiment: Basal ERK1/2 phosphorylation assay (MSD); type: cell-based; details: Homo sapiens; COLO-205, colon, KRAS WT BRAF p.V600E; 2-hour treatment
Protocol: as §1

[4] = system: ERK1/2 phosphorylation in SW1463 cells; experiment: Basal ERK1/2 phosphorylation assay (MSD); type: cell-based; details: Homo sapiens; SW1463, colon, KRAS p.G12C homozygous; 2-hour treatment
Protocol: as §1

[5] = system: ERK1/2 phosphorylation in Calu-1 cells; experiment: Basal ERK1/2 phosphorylation assay (MSD); type: cell-based; details: Homo sapiens; Calu-1, lung, KRAS p.G12C heterozygous; 2-hour treatment
Protocol: as §1

[6] = system: ERK1/2 phosphorylation in NCI-H1373 cells; experiment: Basal ERK1/2 phosphorylation assay (MSD); type: cell-based; details: Homo sapiens; NCI-H1373, lung, KRAS p.G12C homozygous; 2-hour treatment
Protocol: as §1

[7] = system: ERK1/2 phosphorylation in NCI-H23 cells; experiment: Basal ERK1/2 phosphorylation assay (MSD); type: cell-based; details: Homo sapiens; NCI-H23, lung, KRAS p.G12C heterozygous; 2-hour treatment
Protocol: as §1

[8] = system: ERK1/2 phosphorylation in HCC-827 cells; experiment: Basal ERK1/2 phosphorylation assay (MSD); type: cell-based; details: Homo sapiens, HCC827; HCC-827, lung, KRAS WT EGFR p.E746_A750del; 2-hour treatment
Protocol: as §1

[9] = system: ERK1/2 phosphorylation in SW837 cells; experiment: Basal ERK1/2 phosphorylation assay (MSD); type: cell-based; details: Homo sapiens; SW837, colon, KRAS p.G12C heterozygous; 2-hour treatment
Protocol: as §1

[10] = system: ERK1/2 phosphorylation in NCI-H1355 cells; experiment: Basal ERK1/2 phosphorylation assay (MSD); type: cell-based; details: Homo sapiens; NCI-H1355, lung, KRAS p.G13C heterozygous; 2-hour treatment
Protocol: as §1

[11] = system: ERK1/2 phosphorylation in AsPC-1 cells; experiment: Basal ERK1/2 phosphorylation assay (MSD); type: cell-based; details: Homo sapiens, ASPC1; AsPC-1, pancreas, KRAS p.G12D homozygous; 2-hour treatment
Protocol: as §1

[12] = system: ERK1/2 phosphorylation in NCI-H1322 cells; experiment: Basal ERK1/2 phosphorylation assay (MSD); type: cell-based; details: Homo sapiens, 2 h, read-out: Basal p-ERK1/2 IC50
Protocol: as §1

[13] = system: ERK1/2 phosphorylation in LS 174T cells; experiment: Basal ERK1/2 phosphorylation assay (MSD); type: cell-based; details: Homo sapiens, LS174T, colon, KRAS p.G12D heterozygous, 2-hour treatment
Protocol: as §1

[14] = system: ERK1/2 phosphorylation in MIA PaCa-2 cells; experiment: Basal ERK1/2 phosphorylation assay (MSD); type: cell-based; details: Homo sapiens, 2-hour treatment
Protocol: as §1

[15] = system: ERK1/2 phosphorylation in NCI-H2122 cells; experiment: Basal ERK1/2 phosphorylation assay (MSD); type: cell-based; details: Homo sapiens; NCI-H2122, lung, KRAS p.G12C homozygous; 2-hour treatment
Protocol: as §1

[16] = system: ERK1/2 phosphorylation in SW480 cells; experiment: Basal ERK1/2 phosphorylation assay (MSD); type: cell-based; details: Homo sapiens; SW480, colon, KRAS p.G12V homozygous; 2-hour treatment
Protocol: as §1

[17] = system: ERK1/2 phosphorylation in NCI-H358 cells; experiment: Basal ERK1/2 phosphorylation assay (MSD); type: cell-based; details: Homo sapiens
Protocol: as §1

[18] = system: ERK1/2 phosphorylation in KM12 cells; experiment: Basal ERK1/2 phosphorylation assay (MSD); type: cell-based; details: Homo sapiens; KM12, colon, KRAS WT TPM3-NTRK fusion; 2-hour treatment; read-out: Basal p-ERK1/2 IC50
Protocol: as §1

[19] = system: ERK1/2 phosphorylation in SW1573 cells; experiment: Basal ERK1/2 phosphorylation assay (MSD); type: cell-based; details: Homo sapiens; SW1573, lung, KRAS p.G12C homozygous; 2-hour treatment
Protocol: as §1

[20] = system: ERK1/2 phosphorylation in NCI-H2030 cells; experiment: Basal ERK1/2 phosphorylation assay (MSD); type: cell-based; details: Homo sapiens; NCI-H2030, lung, KRAS p.G12C homozygous; 2-hour treatment
Protocol: as §1

[21] = system: ERK1/2 phosphorylation in A549 cells; experiment: Basal ERK1/2 phosphorylation assay (MSD); type: cell-based; details: Homo sapiens; A549, lung, KRAS p.G12S homozygous; 2-hour treatment
Protocol: as §1

[22] = system: ERK1/2 phosphorylation in A-427 cells; experiment: Basal ERK1/2 phosphorylation assay (MSD); type: cell-based; details: Homo sapiens; A-427, lung, KRAS p.G12D heterozygous; 2-hour treatment
Protocol: as §1

[23] = system: KRASp.G12V (SW480-1AC) tumor xenografts; experiment: Tumor xenograft efficacy study; type: in vivo, mouse

Q: For `C=CC(=O)N1CCN(c2nc(=O)n(-c3c(C)ccnc3C(C)C)c3nc(-c4c(O)cccc4F)c(F)cc23)[C@@H](C)C1` (atropisomer, axis not shown) [AMG 510, 6-fluoro-7-(2-fluoro-6-hydroxyphenyl)-1-(4-methyl-2-(2-propanyl)-3-pyridinyl)-4-((2S)-2-methyl-4-(2-propenoyl)-1-piperazinyl)pyrido[2,3-d]pyrimidin-2(1H)-one], which half-life (physchem) is on record?
A: Its half-life is 3.27 h.

Q: What about the “time of peak plasma and tumor exposure” value [1] of the same molecule?
A: Its value is 0.5 h.

Q: And the IC50 [2]?
A: The IC50 was 29 ± 16 nM.

Q: What about the IC50 [3] of the same molecule?
A: The IC50 was greater than 10000 nM.

Q: And the IC50 [4]?
A: The IC50 was 33 ± 4 nM.

Q: What about the IC50 [5] of the same molecule?
A: Its IC50 is 13 ± 4 nM.

Q: What about the IC50 [6] of the same molecule?
A: Its IC50 is 10 ± 0.1 nM.

Q: And the IC50 [7]?
A: Its IC50 is 90 ± 17 nM.

Q: What about the IC50 [8] of the same molecule?
A: The IC50 was greater than 10000 nM.

Q: What about the IC50 [9] of the same molecule?
A: The IC50 was 18 ± 2 nM.

Q: What about the IC50 [10] of the same molecule?
A: Its IC50 is greater than 10000 nM.

Q: What about the IC50 [11] of the same molecule?
A: The IC50 was greater than 10000 nM.

Q: And the IC50 [12]?
A: The IC50 was greater than 10000 nM.

Q: And the IC50 [13]?
A: The IC50 was greater than 10000 nM.

Q: And the IC50 ([14]; second of two KRASp.G12C cell lines (FIG. 40E: MIA PaCa-2), read-out: p-ERK IC50)?
A: Its IC50 is roughly 30 nM.

Q: What about the IC50 ([14]; MIA PaCa-2, pancreas, KRAS p.G12C homozygous, read-out: Basal p-ERK1/2 IC50) of the same molecule?
A: The IC50 was 36 ± 2 nM.

Q: What about the IC50 [15] of the same molecule?
A: The IC50 was 123 ± 6 nM.

Q: What about the IC50 [16] of the same molecule?
A: Its IC50 is greater than 10000 nM.

Q: What about the IC50 ([17]; NCI-H358, 2 h, read-out: p-ERK IC50) of the same molecule?
A: Its IC50 is roughly 20 nM.

Q: And the IC50 ([17]; NCI-H358, lung, KRAS p.G12C heterozygous, 2-hour treatment, read-out: Basal p-ERK1/2 IC50)?
A: The IC50 was 35 ± 3 nM.

Q: And the IC50 [18]?
A: Its IC50 is greater than 10000 nM.

Q: And the IC50 [19]?
A: Its IC50 is 27 ± 1 nM.

Q: What about the IC50 [20] of the same molecule?
A: Its IC50 is 40 ± 20 nM.

Q: What about the IC50 [21] of the same molecule?
A: Its IC50 is greater than 10000 nM.

Q: What about the IC50 [22] of the same molecule?
A: Its IC50 is greater than 10000 nM.

Q: And the “tumor growth” value [23]?
A: Its value is “no effect”.
